Test systems include HCT-15 colon; EKVX NSCLC; RPMI-8226 leukemia; SW-620 colon; MDA-N; SK-MEL-28 melanoma; HCT-116 colon; SF-539 CNS; OVCAR-4 ovarian; NCI-H460 lung; K-562 leukemia; MOLT-4 leukemia; MDA-MB-231 breast; UO-31 renal; 786-0 renal; SK-MEL-2 melanoma; A498 renal; OVCAR-5 ovarian; UACC-62 melanoma; ACHN renal.
Experiment in all cases: inhibition of tumour cell growth, NCI panel, 48 h

Each structure is given as a SMILES string.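 96-well plates; 48 h exposure; 5 concentrations. Endpoints by linear interpolation between flanking doses. Not reached: highest tested concentration assigned. TGI denotes the concentration required for complete inhibition of growth.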

On to `O=C(CC(C(=O)c1cccs1)c1cccs1)c1ccsc1` (stereo not given), for which the TGI was more than 100 µM in the experiment with HCT-15 colon; more than 100 µM in the experiment with EKVX NSCLC; more than 100 µM in the experiment with RPMI-8226 leukemia; more than 100 µM in the experiment on SW-620 colon; 46.4 µM in the experiment with MDA-N; more than 100 µM in the experiment with SK-MEL-28 melanoma. The TGI in the experiment with HCT-116 colon, with SF-539 CNS, with OVCAR-4 ovarian, in the experiment with NCI-H460 lung, with K-562 leukemia and in the experiment on MOLT-4 leukemia was more than 100 µM throughout. Further, the TGI in the experiment with MDA-MB-231 breast, in the experiment on UO-31 renal, in the experiment on 786-0 renal, in the experiment on SK-MEL-2 melanoma, in the experiment on A498 renal and in the experiment with OVCAR-5 ovarian was more than 100 µM in each case. Further, the TGI in the experiment on UACC-62 melanoma and with ACHN renal was more than 100 µM in each case.

On to `CC(C)(C)OCC1NC(=O)[C@@H]2Cc3c([nH]c4ccccc34)C(c3ccccc3)N2C1=O` (stereo not given in full), for which the TGI in the experiment with HCT-15 colon is more than 50 µM; in the experiment with EKVX NSCLC it was more than 50 µM; in the experiment on RPMI-8226 leukemia, more than 33.7 µM; with SW-620 colon it was more than 50 µM; in the experiment with MDA-N it was more than 50 µM; in the experiment with SK-MEL-28 melanoma, more than 50 µM. Also, the TGI was more than 50 µM in the experiment with HCT-116 colon; more than 50 µM in the experiment with SF-539 CNS; more than 50 µM with OVCAR-4 ovarian; more than 50 µM in the experiment on NCI-H460 lung; more than 50 µM with K-562 leukemia; more than 32.7 µM in the experiment on MOLT-4 leukemia. Moreover, the TGI with MDA-MB-231 breast, in the experiment with UO-31 renal, in the experiment with 786-0 renal, in the experiment with SK-MEL-2 melanoma, in the experiment with A498 renal and in the experiment with OVCAR-5 ovarian was more than 50 µM each time. For the same compound, the TGI in the experiment on UACC-62 melanoma and in the experiment with ACHN renal was more than 50 µM each time.

Take `CC1(C)CCc2c(c(N=Nc3ccc(S(N)(=O)=O)cc3)c3ccccc3c2O)O1`: the TGI is 43.9 µM in the experiment with HCT-15 colon; 57.1 µM in the experiment with EKVX NSCLC; more than 100 µM in the experiment with RPMI-8226 leukemia; more than 100 µM with SW-620 colon; 9.72 µM in the experiment with MDA-N; 72.9 µM with SK-MEL-28 melanoma. The TGI in the experiment on HCT-116 colon is 34.7 µM; in the experiment with SF-539 CNS, 22.2 µM; with OVCAR-4 ovarian it was 26 µM; in the experiment on NCI-H460 lung, 24.3 µM; with K-562 leukemia it was more than 100 µM; with MOLT-4 leukemia, 82.7 µM. Besides, the TGI with MDA-MB-231 breast was found to be 8.77 µM; in the experiment with UO-31 renal, 40.4 µM; in the experiment with 786-0 renal it was 23.2 µM; in the experiment on SK-MEL-2 melanoma, 83.8 µM; in the experiment on A498 renal, 7.28 µM; in the experiment on OVCAR-5 ovarian it was 38.2 µM. In addition, the TGI amounted to 34.3 µM in the experiment on UACC-62 melanoma and 56.7 µM in the experiment with ACHN renal.

For `CN(C)CC1CN=C(N)O1` (stereo not given), the TGI with HCT-15 colon, in the experiment on EKVX NSCLC, with RPMI-8226 leukemia, in the experiment with SW-620 colon, with MDA-N and in the experiment on SK-MEL-28 melanoma was more than 100 µM each time. The TGI in the experiment on HCT-116 colon, with SF-539 CNS, in the experiment on OVCAR-4 ovarian, in the experiment with NCI-H460 lung, with K-562 leukemia and in the experiment with MOLT-4 leukemia was more than 100 µM each time. For the same compound, the TGI in the experiment on MDA-MB-231 breast, with UO-31 renal, in the experiment on 786-0 renal, with SK-MEL-2 melanoma, in the experiment with A498 renal and with OVCAR-5 ovarian was more than 100 µM in each case. The TGI with UACC-62 melanoma and in the experiment with ACHN renal was more than 100 µM throughout.

For `CCOC(=O)CCC(NC(=O)c1ccc(Oc2nc3ccccc3nc2-c2ccccc2)cc1)C(=O)OCC` (stereo not given), the TGI is more than 100 µM with HCT-15 colon; more than 100 µM with EKVX NSCLC; more than 100 µM in the experiment with RPMI-8226 leukemia; more than 100 µM in the experiment on SW-620 colon; more than 85.4 µM with MDA-N; more than 100 µM in the experiment with SK-MEL-28 melanoma. Besides, the TGI was more than 49.3 µM in the experiment with HCT-116 colon; 15 µM with SF-539 CNS; 65.6 µM with OVCAR-4 ovarian; more than 100 µM with NCI-H460 lung; more than 100 µM in the experiment on K-562 leukemia; more than 100 µM in the experiment with MOLT-4 leukemia. For the same compound, the TGI is 65.9 µM with MDA-MB-231 breast; more than 100 µM with UO-31 renal; more than 28.7 µM in the experiment with 786-0 renal; more than 93 µM in the experiment on SK-MEL-2 melanoma; more than 100 µM in the experiment on A498 renal; more than 100 µM with OVCAR-5 ovarian. The figures for the TGI in the experiment with UACC-62 melanoma and with ACHN renal were more than 100 µM and more than 66.9 µM, respectively.

Turning to `c1ccc(C2=NCCN2)c(C2=NCCN2)c1`, the TGI in the experiment on HCT-15 colon, in the experiment with EKVX NSCLC, with RPMI-8226 leukemia, in the experiment on SW-620 colon, in the experiment with MDA-N and in the experiment on SK-MEL-28 melanoma was more than 100 µM throughout. Besides, the TGI with HCT-116 colon, with SF-539 CNS, with OVCAR-4 ovarian, in the experiment on NCI-H460 lung, in the experiment on K-562 leukemia and in the experiment with MOLT-4 leukemia was more than 100 µM in each case. Also, the TGI in the experiment on MDA-MB-231 breast, in the experiment on UO-31 renal, in the experiment with 786-0 renal, in the experiment with SK-MEL-2 melanoma, in the experiment on A498 renal and in the experiment on OVCAR-5 ovarian was more than 100 µM throughout. Moreover, the TGI with UACC-62 melanoma and in the experiment on ACHN renal was more than 100 µM each time.

`COC(=O)[C@]12CC[C@H]3CC[C@H]([C@H]31)[C@H](c1ccccc1)N2`: the TGI was 38.4 µM in the experiment with HCT-15 colon; 33.1 µM in the experiment with EKVX NSCLC; 47.9 µM in the experiment on RPMI-8226 leukemia; 53.2 µM in the experiment on SW-620 colon; 34.9 µM with MDA-N; 52.2 µM in the experiment on SK-MEL-28 melanoma. In addition, the TGI was found to be 29.5 µM with HCT-116 colon; 30.6 µM with SF-539 CNS; 31.6 µM in the experiment on OVCAR-4 ovarian; 31.2 µM in the experiment on NCI-H460 lung; 53.4 µM in the experiment with K-562 leukemia; 56.5 µM in the experiment with MOLT-4 leukemia. The TGI in the experiment on MDA-MB-231 breast is 30.6 µM; with UO-31 renal, 31.2 µM; in the experiment with 786-0 renal it was 29.4 µM; in the experiment on SK-MEL-2 melanoma, 28.8 µM; in the experiment with A498 renal, 31.9 µM; in the experiment on OVCAR-5 ovarian, 31.4 µM. Moreover, the TGI with UACC-62 melanoma is 29.1 µM; with ACHN renal, 31.4 µM.

As to `O=C(c1c(F)c(F)c(F)c(F)c1F)N1CCN(C(=O)c2c(F)c(F)c(F)c(F)c2F)C1=S`, the TGI in the experiment on HCT-15 colon is 6.15 µM; with EKVX NSCLC, 32.9 µM; in the experiment on RPMI-8226 leukemia it was more than 100 µM; in the experiment with SW-620 colon it was 3.59 µM; in the experiment on MDA-N it was 6.54 µM; in the experiment with SK-MEL-28 melanoma, 14.9 µM. Further, the TGI with HCT-116 colon is 7.72 µM; in the experiment with SF-539 CNS, 24 µM; with OVCAR-4 ovarian, 10.4 µM; in the experiment with NCI-H460 lung, 25.6 µM; in the experiment on K-562 leukemia, more than 100 µM; with MOLT-4 leukemia it was 11.4 µM. For the same compound, the TGI with MDA-MB-231 breast came to 14.4 µM; with UO-31 renal, 10 µM; in the experiment on 786-0 renal, 27.3 µM; in the experiment on SK-MEL-2 melanoma it was 7.33 µM; with A498 renal it was 32 µM; in the experiment with OVCAR-5 ovarian it was 29.4 µM. The TGI worked out at 9.33 µM in the experiment on UACC-62 melanoma and 20.3 µM with ACHN renal.

For the compound `COc1c(OC(C)C)c(OC(C)C)c2oc(=O)n3c2c1C(c1ccccc1-n1c(C)ccc1C)C=C3` (stereo not given), the TGI in the experiment with HCT-15 colon is more than 100 µM; in the experiment on EKVX NSCLC, 95.4 µM; in the experiment with RPMI-8226 leukemia it was more than 100 µM; in the experiment on SW-620 colon it was more than 100 µM; in the experiment on MDA-N, more than 100 µM; with SK-MEL-28 melanoma it was more than 100 µM. Moreover, the TGI in the experiment with HCT-116 colon, with SF-539 CNS, with OVCAR-4 ovarian, with NCI-H460 lung, in the experiment with K-562 leukemia and in the experiment on MOLT-4 leukemia was more than 100 µM in each case. Also, the TGI in the experiment on MDA-MB-231 breast, in the experiment on UO-31 renal, in the experiment with 786-0 renal, in the experiment on SK-MEL-2 melanoma, in the experiment with A498 renal and in the experiment on OVCAR-5 ovarian was more than 100 µM throughout. In addition, the TGI in the experiment with UACC-62 melanoma and in the experiment on ACHN renal was more than 100 µM in each case.

On to `O=C(N/N=C/c1c(-c2ccccc2)no[n+]1[O-])N1CCOCC1`, for which the TGI in the experiment on HCT-15 colon, with EKVX NSCLC, with RPMI-8226 leukemia, in the experiment with SW-620 colon, in the experiment on MDA-N and with SK-MEL-28 melanoma was more than 100 µM each time. The TGI in the experiment with HCT-116 colon, in the experiment on SF-539 CNS, with OVCAR-4 ovarian, in the experiment on NCI-H460 lung, in the experiment with K-562 leukemia and in the experiment with MOLT-4 leukemia was more than 100 µM throughout. The TGI in the experiment on MDA-MB-231 breast, in the experiment with UO-31 renal, in the experiment on 786-0 renal, with SK-MEL-2 melanoma, in the experiment on A498 renal and in the experiment on OVCAR-5 ovarian was more than 100 µM throughout. In addition, the TGI with UACC-62 melanoma and with ACHN renal was more than 100 µM throughout.

On to `O=C1c2ccccc2CN1c1ccc(OCCN2CCCCC2)cc1`, for which the TGI in the experiment on HCT-15 colon, in the experiment with EKVX NSCLC, in the experiment with RPMI-8226 leukemia, in the experiment with SW-620 colon, in the experiment with MDA-N and in the experiment on SK-MEL-28 melanoma was more than 10 µM each time. The TGI with HCT-116 colon, in the experiment on SF-539 CNS, in the experiment on OVCAR-4 ovarian, with NCI-H460 lung, with K-562 leukemia and in the experiment on MOLT-4 leukemia was more than 10 µM in each case. In addition, the TGI in the experiment with MDA-MB-231 breast, with UO-31 renal, in the experiment with 786-0 renal, with SK-MEL-2 melanoma, in the experiment with A498 renal and in the experiment with OVCAR-5 ovarian was more than 10 µM each time. The TGI in the experiment on UACC-62 melanoma and in the experiment with ACHN renal was more than 10 µM in each case.

Source of the values: PubChem BioAssay (NCI).
